Data published in ChEMBL document CHEMBL6109063, “Discovery of dual PARP/NAMPT inhibitors for the treatment of BRCA wild-type triple-negative breast cancer” (Bioorg Med Chem Lett, 2025).
Active and inactive are the calls of the source. No cut-off for these calls is given here.

What was measured:
[1] = biological target: Poly [ADP-ribose] polymerase 1 (Homo sapiens, UniProt P09874); test: Inhibition of PARP1 (unknown origin)
MDA-MB-231 [2] = test: cells; details: Homo sapiens
[3] = biological target: Nicotinamide phosphoribosyltransferase (Homo sapiens, UniProt P43490); test: Inhibition of NAMPT (unknown origin)
MDA-MB-436 = test: cells; details: Homo sapiens
MDA-MB-231 [4] = test: Induction of apoptosis in human MDA-MB-231 cells harboring wild-type BRCA assessed as viable cells at 10 uM incubated for 48 hrs by Annexin V-FITC/PI staining based flow cytometry analysis (reference value: 94.3%); type: functional; details: read-out: Activity
MDA-MB-231 [5] = test: Induction of apoptosis in human MDA-MB-231 cells harboring wild-type BRCA assessed as early apoptotic cells at 10 uM incubated for 48 hrs in presence of GNE-617 by Annexin V-FITC/PI staining based flow cytometry analysis (reference value: 1.60%); type: functional
MDA-MB-231 [6] = test: Induction of apoptosis in human MDA-MB-231 cells harboring wild-type BRCA assessed as necrotic cells at 10 uM incubated for 48 hrs in presence of GNE-617 by Annexin V-FITC/PI staining based flow cytometry analysis (reference value: 1.68%); type: functional
MDA-MB-231 [7] = test: Induction of apoptosis in human MDA-MB-231 cells harboring wild-type BRCA assessed as early apoptotic cells at 10 uM incubated for 48 hrs by Annexin V-FITC/PI staining based flow cytometry analysis (reference value: 1.60%); type: functional
MDA-MB-231 [8] = test: Induction of apoptosis in human MDA-MB-231 cells harboring wild-type BRCA assessed as necrotic cells at 10 uM incubated for 48 hrs by Annexin V-FITC/PI staining based flow cytometry analysis (reference value: 1.68%); type: functional
MDA-MB-231 [9] = test: Induction of apoptosis in human MDA-MB-231 cells harboring wild-type BRCA assessed as late apoptotic cells at 10 uM incubated for 48 hrs by Annexin V-FITC/PI staining based flow cytometry analysis (reference value: 2.38%); type: functional
MDA-MB-231 [10] = test: Induction of apoptosis in human MDA-MB-231 cells harboring wild-type BRCA assessed as late apoptotic cells at 10 uM incubated for 48 hrs in presence of GNE-617 by Annexin V-FITC/PI staining based flow cytometry analysis (reference value: 2.38%); type: functional
MDA-MB-231 [11] = test: Induction of apoptosis in human MDA-MB-231 cells harboring wild-type BRCA assessed as viable cells at 10 uM incubated for 48 hrs in presence of GNE-617 by Annexin V-FITC/PI staining based flow cytometry analysis (reference value: 94.3%); type: functional; details: read-out: Activity
MDA-MB-231 [12] = test: Induction of apoptosis in human MDA-MB-231 cells harboring wild-type BRCA assessed as early apoptotic cells at 5 uM incubated for 48 hrs by Annexin V-FITC/PI staining based flow cytometry analysis (reference value: 1.60%); type: functional
MDA-MB-231 [13] = test: Downregulation of BRCA1 level in human MDA-MB-231 cells at 5 to 10 uM by Western blot analysis; type: functional, cell-based; details: dose 5-10 µM
MDA-MB-231 [14] = test: Induction of apoptosis in human MDA-MB-231 cells harboring wild-type BRCA incubated for 48 hrs by Annexin V-FITC/PI staining based flow cytometry analysis; type: functional, cell-based; details: dose 5-10 µM
MDA-MB-231 [15] = test: Induction of apoptosis in human MDA-MB-231 cells harboring wild-type BRCA assessed as late apoptotic cells at 5 uM incubated for 48 hrs by Annexin V-FITC/PI staining based flow cytometry analysis (reference value: 2.38%); type: functional
MDA-MB-231 [16] = test: Antimigratory activity against human MDA-MB-231 cells at 10 uM incubated for 48 hrs by Transwell migration assay; type: functional, cell-based
MDA-MB-231 [17] = test: Antimigratory activity against human MDA-MB-231 cells at 10 uM incubated for 48 hrs by wound healing assay; type: functional, cell-based
MDA-MB-231 [18] = test: Induction of apoptosis in human MDA-MB-231 cells harboring wild-type BRCA assessed as necrotic cells at 5 uM incubated for 48 hrs by Annexin V-FITC/PI staining based flow cytometry analysis (reference value: 1.68%); type: functional
MDA-MB-231 [19] = test: Induction of DNA damage in human MDA-MB-231 cells assessed as increase in gammaH2AX levels at 5 to 10 uM incubated for 48 hrs by DAPI staining based Immunofluorescence analysis; type: functional, cell-based; details: dose 5-10 µM
MDA-MB-231 [20] = test: Induction of apoptosis in human MDA-MB-231 cells harboring wild-type BRCA assessed as viable cells at 5 uM incubated for 48 hrs by Annexin V-FITC/PI staining based flow cytometry analysis (reference value: 94.3%); type: functional; details: read-out: Activity
MDA-MB-231 [21] = test: Downregulation of Rad51 level in human MDA-MB-231 cells at 5 to 10 uM by Western blot analysis; type: functional, cell-based; details: dose 5-10 µM
MDA-MB-231 [22] = test: Induction of apoptosis in human MDA-MB-231 cells harboring wild-type BRCA assessed as late apoptotic cells at 15 uM incubated for 48 hrs by Annexin V-FITC/PI staining based flow cytometry analysis (reference value: 2.38%); type: functional
MDA-MB-231 [23] = test: Induction of apoptosis in human MDA-MB-231 cells harboring wild-type BRCA assessed as early apoptotic cells at 15 uM incubated for 48 hrs in presence of Olaparib by Annexin V-FITC/PI staining based flow cytometry analysis (reference value: 1.60%); type: functional
MDA-MB-231 [24] = test: Induction of apoptosis in human MDA-MB-231 cells harboring wild-type BRCA assessed as viable cells at 15 uM incubated for 48 hrs by Annexin V-FITC/PI staining based flow cytometry analysis (reference value: 94.3%); type: functional; details: read-out: Activity
MDA-MB-231 [25] = test: Induction of apoptosis in human MDA-MB-231 cells harboring wild-type BRCA assessed as late apoptotic cells at 15 uM incubated for 48 hrs in presence of Olaparib by Annexin V-FITC/PI staining based flow cytometry analysis (reference value: 2.38%); type: functional
MDA-MB-231 [26] = test: Induction of apoptosis in human MDA-MB-231 cells harboring wild-type BRCA assessed as necrotic cells at 15 uM incubated for 48 hrs by Annexin V-FITC/PI staining based flow cytometry analysis (reference value: 1.68%); type: functional
MDA-MB-231 [27] = test: Induction of apoptosis in human MDA-MB-231 cells harboring wild-type BRCA assessed as necrotic cells at 15 uM incubated for 48 hrs in presence of Olaparib by Annexin V-FITC/PI staining based flow cytometry analysis (reference value: 1.68%); type: functional
MDA-MB-231 [28] = test: Induction of apoptosis in human MDA-MB-231 cells harboring wild-type BRCA assessed as early apoptotic cells at 15 uM incubated for 48 hrs by Annexin V-FITC/PI staining based flow cytometry analysis (reference value: 1.60%); type: functional
MDA-MB-231 [29] = test: Synergistic anti-proliferative activity against human MDA-MB-231 cells harboring wild-type BRCA assessed as combination index at 10 to 40 uM in presence of olaparib; type: functional; details: dose 10-40 µM
MDA-MB-231 [30] = test: Induction of apoptosis in human MDA-MB-231 cells harboring wild-type BRCA assessed as viable cells at 15 uM incubated for 48 hrs in presence of Olaparib by Annexin V-FITC/PI staining based flow cytometry analysis (reference value: 94.3%); type: functional; details: read-out: Activity

Nicotinamide phosphoribosyltransferase, sequence (P43490 whole entry): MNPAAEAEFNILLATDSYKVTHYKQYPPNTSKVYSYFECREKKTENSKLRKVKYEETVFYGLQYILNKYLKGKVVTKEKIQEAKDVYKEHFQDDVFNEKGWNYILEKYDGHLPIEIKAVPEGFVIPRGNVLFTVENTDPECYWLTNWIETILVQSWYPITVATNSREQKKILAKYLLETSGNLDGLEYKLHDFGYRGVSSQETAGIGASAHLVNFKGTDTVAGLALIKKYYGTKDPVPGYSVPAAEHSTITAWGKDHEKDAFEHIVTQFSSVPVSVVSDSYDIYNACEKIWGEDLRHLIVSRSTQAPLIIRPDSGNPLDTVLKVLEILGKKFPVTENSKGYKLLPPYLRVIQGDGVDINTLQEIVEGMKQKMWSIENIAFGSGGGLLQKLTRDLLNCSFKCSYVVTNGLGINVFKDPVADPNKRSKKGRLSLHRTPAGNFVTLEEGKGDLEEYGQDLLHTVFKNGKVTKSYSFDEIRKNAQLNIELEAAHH
Poly [ADP-ribose] polymerase 1, sequence (P09874 whole entry): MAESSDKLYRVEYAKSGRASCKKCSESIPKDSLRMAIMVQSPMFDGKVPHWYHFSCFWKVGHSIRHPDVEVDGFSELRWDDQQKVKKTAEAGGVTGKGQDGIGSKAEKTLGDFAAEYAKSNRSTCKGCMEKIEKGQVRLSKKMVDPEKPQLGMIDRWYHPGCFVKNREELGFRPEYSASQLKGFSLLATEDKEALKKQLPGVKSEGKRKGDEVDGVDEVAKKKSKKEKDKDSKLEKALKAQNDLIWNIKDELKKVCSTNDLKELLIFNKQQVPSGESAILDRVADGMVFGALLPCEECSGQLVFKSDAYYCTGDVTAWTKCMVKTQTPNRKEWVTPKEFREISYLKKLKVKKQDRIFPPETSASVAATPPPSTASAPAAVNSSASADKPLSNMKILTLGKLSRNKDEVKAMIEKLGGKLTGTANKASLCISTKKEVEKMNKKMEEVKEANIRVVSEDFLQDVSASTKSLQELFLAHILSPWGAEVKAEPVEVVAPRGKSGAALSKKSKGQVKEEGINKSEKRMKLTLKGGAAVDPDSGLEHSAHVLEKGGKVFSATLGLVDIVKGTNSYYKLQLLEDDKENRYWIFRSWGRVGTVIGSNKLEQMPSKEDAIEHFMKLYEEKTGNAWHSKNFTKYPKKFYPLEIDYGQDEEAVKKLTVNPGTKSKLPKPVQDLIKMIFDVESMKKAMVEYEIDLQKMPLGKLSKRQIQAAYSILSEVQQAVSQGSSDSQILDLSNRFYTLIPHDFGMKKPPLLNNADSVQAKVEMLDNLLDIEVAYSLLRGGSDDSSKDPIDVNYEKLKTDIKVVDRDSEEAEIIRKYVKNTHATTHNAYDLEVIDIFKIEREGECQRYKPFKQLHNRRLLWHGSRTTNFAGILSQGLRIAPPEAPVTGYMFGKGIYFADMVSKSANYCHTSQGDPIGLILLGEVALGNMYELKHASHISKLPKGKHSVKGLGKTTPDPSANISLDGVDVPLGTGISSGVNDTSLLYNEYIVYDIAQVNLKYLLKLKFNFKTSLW

## O=C(NCCCCCN1CCN(C(=O)c2cc(Cc3n[nH]c(=O)c4ccccc34)ccc2F)CC1)c1ccc2nccn2c1
[1]
  IC50: 1.8 nM

## O=C(/C=C/c1cccnc1)NCCCCCN1CCN(C(=O)c2cc(Cc3n[nH]c(=O)c4ccccc34)ccc2F)CC1
MDA-MB-231 [2]
  IC50: 2.54 µM
[3]
  IC50: 14 nM
MDA-MB-436
  IC50: 1120 nM
[1]
  IC50: 1.6 nM

## O=C(c1cc(Cc2n[nH]c(=O)c3ccccc23)ccc1F)N1CCN(C(=O)C2CC2)CC1 [OLAPARIB]
MDA-MB-231 [4]
  viability at 10 µM: 87.5%
MDA-MB-231 [2]
  IC50: 29.9 µM
MDA-MB-231 [5]
  Activity: 34.6%
MDA-MB-231 [6]
  Activity: 0.023%
MDA-MB-231 [7]
  Activity: 12.4%
MDA-MB-231 [8]
  Activity: 0.006%
MDA-MB-231 [9]
  Activity: 0.041%
MDA-MB-231 [10]
  Activity: 1.38%
MDA-MB-231 [11]
  viability at 10 µM: 64%
MDA-MB-436
  IC50: 1180 nM

## O=C(/C=C/c1cccnc1)NCCCCN1CCN(C(=O)c2cc(Cc3n[nH]c(=O)c4ccccc34)ccc2F)CC1
MDA-MB-231 [2]
  IC50: 4.17 µM
[3]
  IC50: 10 nM
MDA-MB-436
  IC50: 1440 nM
[1]
  IC50: 0.9 nM

## O=C(NCCCCCCN1CCN(C(=O)c2cc(Cc3n[nH]c(=O)c4ccccc34)ccc2F)CC1)c1ccc2nccn2c1
MDA-MB-231 [4]
  viability at 10 µM: 49.3%
MDA-MB-231 [2]
  IC50: 0.7 µM
MDA-MB-231 [12]
  Activity: 29.8%
[3]
  IC50: 18 nM
MDA-MB-231 [13]
  Activity: Active
MDA-MB-231 [14]
  Activity: Dose-dependent-effect
MDA-MB-231 [15]
  Activity: 1.84%
MDA-MB-231 [16]
  Activity: Active
MDA-MB-231 [17]
  Activity: Active
MDA-MB-231 [7]
  Activity: 44.2%
MDA-MB-231 [8]
  Activity: 0.41%
MDA-MB-231 [18]
  Activity: 0.031%
MDA-MB-231 [9]
  Activity: 6.09%
MDA-MB-231 [19]
  Activity: Active
MDA-MB-231 [20]
  viability at 5 µM: 68.3%
MDA-MB-436
  IC50: 960 nM
[1]
  IC50: 0.8 nM
MDA-MB-231 [21]
  Activity: Active

## O=C(/C=C/c1cccnc1)NCCCCCCN1CCN(C(=O)c2cc(Cc3n[nH]c(=O)c4ccccc34)ccc2F)CC1
[3]
  IC50: 349 nM
[1]
  IC50: 1 nM

## O=C(/C=C/c1cccnc1)NCCN1CCN(C(=O)c2cc(Cc3n[nH]c(=O)c4ccccc34)ccc2F)CC1
[3]
  IC50: 93 nM

## O=C(NCCCCN1CCN(C(=O)c2cc(Cc3n[nH]c(=O)c4ccccc34)ccc2F)CC1)c1ccc2nccn2c1
[3]
  IC50: 72 nM
[1]
  IC50: 1 nM

## O=C(NCc1ccc(S(=O)(=O)c2cc(F)cc(F)c2)cc1)c1ccc2nccn2c1
MDA-MB-231 [2]
  IC50: 50.9 µM
MDA-MB-231 [22]
  Activity: 0.19%
MDA-MB-231 [23]
  Activity: 34.6%
MDA-MB-231 [24]
  viability at 15 µM: 82.7%
MDA-MB-231 [25]
  Activity: 1.38%
MDA-MB-231 [26]
  Activity: 0.023%
MDA-MB-231 [27]
  Activity: 0.023%
MDA-MB-436
  IC50: 34200 nM
MDA-MB-231 [28]
  Activity: 17%
MDA-MB-231 [29]
  CI: <1
MDA-MB-231 [30]
  viability at 15 µM: 64%

## O=C(/C=C/c1cccnc1)NCCCN1CCN(C(=O)c2cc(Cc3n[nH]c(=O)c4ccccc34)ccc2F)CC1
[3]
  IC50: 68 nM
[1]
  IC50: 0.6 nM
